# Assay results published in article PMC9847078, “On the plasticity of amyloid formation: The impact of destabilizing small to large substitutions on islet amyloid polypeptide amyloid formation” (Protein Science : A Publication of the Protein Society, 2023).
# Experiment: Peptide solubility measurement (micro‐BCA after centrifugation)
# Format: physicochemical
# Settings: 200 μM peptide in 10 mM PBS (140 mM KCl), centrifuged 18,000 g 30 min, supernatant by micro‐BCA
# Protocol: Dry peptides were dissolved in HFIP to prepare the stock solutions. The concentrations of the stock solutions were measured by using freeze dried aliquots of the stock solutions with the micro‐BCA assay. Based on the stock solution concentrations, aliquots were prepared and lyophilized. The dry peptides were reconstructed in 10 mM phosphate buffer saline (140 mM KCl), pH 7.4 at a final peptide concentration of 200 μM. Immediately after reconstitution 10 μl of the sample was removed and the soluble peptide concentration was measured using the micro‐BCA assay. […] After 5 days, a 450 μl portion from each sample were removed and centrifuged at 18,000 g for 30 min (25°C). A 100 μl portion of the centrifuged supernatant was subjected to the micro‐BCA assay to calculate the amount of soluble peptide left after 5 days.
Structure (SMILES),"Apparent solubility compared to wild type hIAPP (pH 7.4, 25°C, 5 days, differences not significant (p > 0.05))","Apparent solubility: amount of peptide remaining in the solution (pH 7.4, stood 7 days at room temperature)"
CC[C@H](C)[C@H](NC(=O)[C@H](C)NC(=O)[C@H](CC(C)C)NC(=O)[C@H](Cc1ccccc1)NC(=O)[C@H](CC(N)=O)NC(=O)[C@H](CC(N)=O)NC(=O)[C@H](CO)NC(=O)[C@H](CO)NC(=O)[C@H](Cc1c[nH]cn1)NC(=O)[C@@H](NC(=O)[C@H](CC(C)C)NC(=O)[C@H](Cc1ccccc1)NC(=O)[C@H](CC(N)=O)NC(=O)[C@H](C)NC(=O)[C@H](CC(C)C)NC(=O)[C@H](CCCNC(=N)N)NC(=O)[C@H](CCC(N)=O)NC(=O)[C@@H](NC(=O)[C@H](C)NC(=O)[C@@H]1CSSC[C@H](NC(=O)[C@@H](N)CCCCN)C(=O)N[C@@H](CC(N)=O)C(=O)N[C@@H]([C@@H](C)O)C(=O)N[C@@H](C)C(=O)N[C@@H]([C@@H](C)O)C(=O)N1)[C@@H](C)O)C(C)C)C(=O)N[C@@H](CC(C)C)C(=O)N[C@@H](CO)C(=O)N[C@@H](CO)C(=O)N[C@H](C(=O)N[C@@H](CC(N)=O)C(=O)N[C@H](C(=O)NCC(=O)N[C@@H](CO)C(=O)N[C@@H](CC(N)=O)C(=O)N[C@H](C(=O)N[C@@H](Cc1ccc(O)cc1)C(N)=O)[C@@H](C)O)C(C)C)[C@@H](C)O [G24L‐hIAPP],Slightly higher concentrations,
CC[C@H](C)[C@H](NC(=O)[C@H](C)NC(=O)[C@@H]1CCCN1C(=O)[C@H](Cc1ccccc1)NC(=O)[C@H](CC(N)=O)NC(=O)[C@H](CC(N)=O)NC(=O)[C@H](CO)NC(=O)[C@H](CO)NC(=O)[C@H](Cc1c[nH]cn1)NC(=O)[C@@H](NC(=O)[C@H](CC(C)C)NC(=O)[C@H](Cc1ccccc1)NC(=O)[C@H](CC(N)=O)NC(=O)[C@H](C)NC(=O)[C@H](CC(C)C)NC(=O)[C@H](CCCNC(=N)N)NC(=O)[C@H](CCC(N)=O)NC(=O)[C@@H](NC(=O)[C@H](C)NC(=O)[C@@H]1CSSC[C@H](NC(=O)[C@@H](N)CCCCN)C(=O)N[C@@H](CC(N)=O)C(=O)N[C@@H]([C@@H](C)O)C(=O)N[C@@H](C)C(=O)N[C@@H]([C@@H](C)O)C(=O)N1)[C@@H](C)O)C(C)C)C(=O)N[C@@H](CC(C)C)C(=O)N[C@@H](CO)C(=O)N[C@@H](CO)C(=O)N[C@H](C(=O)N[C@@H](CC(N)=O)C(=O)N[C@H](C(=O)NCC(=O)N[C@@H](CO)C(=O)N[C@@H](CC(N)=O)C(=O)N[C@H](C(=O)N[C@@H](Cc1ccc(O)cc1)C(N)=O)[C@@H](C)O)C(C)C)[C@@H](C)O [G24P‐hIAPP],,greater than 50 μM
